ChEMBL document CHEMBL1201862, “PubChem BioAssay data set” (2004)
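Test compounds were applied to cells in 96-well plates for 48 hours at 5 doses. Abbreviation: GI50, concentration required for 50% inhibition of growth.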 Active and inactive are the calls of the source. No stated cut-off is given here; in the data, active = GI50 up to about 1.1 µM and inactive = higher.

Tests used:
Test in all cases: DTP human tumour cell line panel, 48 h
[1] = system: PC-3
[2] = system: CCRF-CEM
[3] = system: NCI-H522
[4] = system: CAKI-1
[5] = system: KM12
[6] = system: ACHN
[7] = system: NCI-H23
[8] = system: MCF7
[9] = system: MDA-MB-231
[10] = system: K562
[11] = system: DU-145
[12] = system: SK-OV-3
[13] = system: LOX IMVI
[14] = system: SK-MEL-28
[15] = system: M14
[16] = system: NCI-H226
[17] = system: MDA-MB-435
[18] = system: T47D
[19] = system: OVCAR-3
[20] = system: HT-29
[21] = system: UACC-257
[22] = system: RPMI-8226
[23] = system: Malme-3M
[24] = system: TK-10
[25] = system: SF-268
[26] = system: 786-0
[27] = system: SK-MEL-5
[28] = system: NCI-H460
[29] = system: IGROV-1
[30] = system: OVCAR-5
[31] = system: NCI/ADR-RES
[32] = system: UO-31
[33] = system: MOLT-4
[34] = system: BT-549
[35] = system: HCC 2998
[36] = system: HL-60
[37] = system: OVCAR-4
[38] = system: SNB-19
[39] = system: COLO 205
[40] = system: SK-MEL-2
[41] = system: SF-295
[42] = system: OVCAR-8
[43] = system: A498
[44] = system: EKVX
[45] = system: HCT-15
[46] = system: HOP-62
[47] = system: UACC-62
[48] = system: U-251
[49] = system: SW-620
[50] = system: MDA-N
[51] = system: RXF 393
[52] = system: SNB-75
[53] = system: SN12C
[54] = system: Hs-578T
[55] = system: A549
[56] = system: HOP-92
[57] = system: SF-539
[58] = system: HCT-116
[59] = system: SR

Measured: GI50

CC(=O)Nc1sc([N+](=O)[O-])cc1S(=O)(=O)c1ccc(Cl)cc1
active: [27] 1.12 µM | [40] 0.92 µM
inactive: [1] 2.02 µM | [2] 8.2 µM | [3] 1.41 µM | [4] 3.31 µM | [5] 2.99 µM | [6] 2.36 µM | [7] 2.39 µM | [8] 2.86 µM | [9] 4.23 µM | [10] 5.47 µM | [11] 3.3 µM | [12] 2.5 µM | [13] 3.94 µM | [14] 11 µM | [15] 2.02 µM | [16] 3.96 µM | [17] 3.3 µM | [18] 2.04 µM | [19] 2.32 µM | [20] 3.13 µM | [21] 2.64 µM | [22] 3.14 µM | [23] 2.48 µM | [24] 5.28 µM | [25] 4.35 µM | [26] 4.66 µM | [28] 1.65 µM | [29] 4.69 µM | [30] 4.7 µM | [31] 3.22 µM | [32] 3.09 µM | [33] 3.78 µM | [34] 3.64 µM | [35] 2.04 µM | [36] 1.92 µM | [37] 1.86 µM | [38] 3.31 µM | [39] 1.29 µM | [41] 2.14 µM | [42] 3.78 µM | [43] 3.17 µM | [44] 3.59 µM | [46] 1.39 µM | [47] 1.67 µM | [48] 4.22 µM | [49] 5.37 µM | [50] 3.92 µM | [51] 2.64 µM | [52] 2.21 µM | [53] 3.8 µM | [54] 3.56 µM | [55] 2.4 µM | [56] 2 µM | [57] 3.18 µM | [58] 2.99 µM
3.85 µM: [45]

OCCCCCCCCCCCOc1ccc(C2OCC3(CO2)COC(c2ccc(OCCCCCCCCCCCO)cc2)OC3)cc1 (configuration not stated)
> 50 µM: [45]
inactive: [1] > 50 µM | [4] > 50 µM | [5] > 50 µM | [6] > 50 µM | [7] > 50 µM | [8] > 50 µM | [9] > 50 µM | [10] > 50 µM | [11] > 50 µM | [12] > 50 µM | [13] > 50 µM | [14] > 50 µM | [15] > 50 µM | [16] 29.6 µM | [17] > 50 µM | [18] > 50 µM | [19] > 50 µM | [20] > 50 µM | [59] > 50 µM | [21] > 50 µM | [22] > 50 µM | [23] > 50 µM | [24] > 50 µM | [25] > 50 µM | [26] > 50 µM | [27] > 50 µM | [28] > 50 µM | [29] > 50 µM | [30] > 50 µM | [31] > 50 µM | [32] > 50 µM | [33] > 50 µM | [34] > 50 µM | [35] > 50 µM | [37] > 50 µM | [38] > 50 µM | [39] > 50 µM | [40] > 50 µM | [41] > 50 µM | [42] > 50 µM | [43] > 50 µM | [44] > 50 µM | [46] > 50 µM | [47] > 50 µM | [48] > 50 µM | [49] > 50 µM | [50] > 50 µM | [52] > 50 µM | [53] > 50 µM | [54] > 50 µM | [55] > 50 µM | [57] > 50 µM | [58] > 50 µM
